# Results taken from publication PMC5826917, “A small molecule inhibitor of Nicotinamide N-methyltransferase for the treatment of metabolic disorders” (Scientific Reports, 2018).
# Legend:
# [1] = target: Cannabinoid Receptor 1 (CB1) (Homo sapiens, UniProt P21554); experiment: Selectivity panel: CB1; assay type: cell-based
# Description: (§1) Supplement 41598_2018_22081_MOESM1_ESM.docx, table 2: Supplementary table 2: Selectivity profile of JBSNF-000088 (at 10 µM) vs a panel of 34 receptors, channels and enzymes. | column: E% (agonistic); I% (antagonistic or inhibitory)
# [2] = target: Cannabinoid Receptor 2 (CB2) (Homo sapiens, UniProt P34972); experiment: Selectivity panel: CB2; assay type: cell-based
# Description: as §1
# [3] = C57BL/6, mouse, in vivo, iv
# [4] = target: Serotonin Receptor 1A (5HT1A) (Homo sapiens, UniProt P08908); experiment: Selectivity panel: 5HT1A; assay type: cell-based
# Description: as §1
# [5] = target: Histamine Receptor 2 (H2) (Homo sapiens, UniProt P25021); experiment: Selectivity panel: H2; assay type: cell-based
# NNMT = target: T1, NNMT (Homo sapiens, UniProt P40261); experiment: biochemical; design: The full length NNMT proteins (1–264 amino acids) of human & mouse; 6 × His tag (N); TEV cleavage site (ENLYFQG) (N); made in house; host or cells: E. coli Rosetta2(DE3)pLysS
# T1 sequence (P40261 1-264): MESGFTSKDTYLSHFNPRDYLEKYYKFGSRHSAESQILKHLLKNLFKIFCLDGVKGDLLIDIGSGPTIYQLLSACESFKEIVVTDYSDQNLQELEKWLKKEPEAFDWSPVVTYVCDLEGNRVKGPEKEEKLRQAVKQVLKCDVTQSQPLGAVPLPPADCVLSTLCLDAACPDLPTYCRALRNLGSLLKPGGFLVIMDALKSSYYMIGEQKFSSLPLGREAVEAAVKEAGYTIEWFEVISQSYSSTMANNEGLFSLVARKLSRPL
# Description: PE-Sciex API-4000 triple quadrupole (PerkinElmerSciex Instruments, Boston, MA) mass spectrometer was employed for this analysis. […] Detection of the ions was performed in the multiple reaction monitoring (MRM) mode, monitoring the transition of the m/z 137 precursor ion to the m/z 92 product ion for MNA and m/z 141 precursor ion to the m/z 84 product ion for d4-MNA (internal standard).
# The supernatant was separated and transferred to pre-labeled HPLC vials and analyzed by LC-MS/MS system.
# The final assay reaction mixture contained a buffer of 100 mM Tris Hcl pH 7.5, 0.04% BSA, 2 mM dithiothreitol and 1% DMSO.
# [6] = test system: Phencyclidine Receptor (PCP); experiment: Selectivity panel: PCP; assay type: binding; conditions: 10 µM
# Description: Supplement 41598_2018_22081_MOESM1_ESM.docx, table 2: Supplementary table 2: Selectivity profile of JBSNF-000088 (at 10 µM) vs a panel of 34 receptors, channels and enzymes. | column: I% (antagonistic or inhibitory)
# [7] = target: Opioid Receptor mu (OPRM1) (Homo sapiens, UniProt P35372); experiment: Selectivity panel: OPRM1; assay type: cell-based
# Description: as §1
# Serotonin Receptor 1A (5HT1A), sequence (P08908 whole entry): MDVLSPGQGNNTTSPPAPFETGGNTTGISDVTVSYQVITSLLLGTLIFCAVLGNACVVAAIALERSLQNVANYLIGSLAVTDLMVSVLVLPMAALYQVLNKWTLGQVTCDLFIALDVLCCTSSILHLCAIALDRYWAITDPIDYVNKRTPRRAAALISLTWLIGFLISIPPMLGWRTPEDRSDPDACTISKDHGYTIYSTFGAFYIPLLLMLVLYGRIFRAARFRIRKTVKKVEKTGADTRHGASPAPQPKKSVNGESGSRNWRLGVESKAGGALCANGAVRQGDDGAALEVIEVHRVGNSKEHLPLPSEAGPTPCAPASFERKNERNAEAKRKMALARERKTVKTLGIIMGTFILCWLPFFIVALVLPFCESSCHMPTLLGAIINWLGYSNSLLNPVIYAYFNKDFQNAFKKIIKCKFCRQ
# Cannabinoid Receptor 2 (CB2), sequence (P34972 whole entry): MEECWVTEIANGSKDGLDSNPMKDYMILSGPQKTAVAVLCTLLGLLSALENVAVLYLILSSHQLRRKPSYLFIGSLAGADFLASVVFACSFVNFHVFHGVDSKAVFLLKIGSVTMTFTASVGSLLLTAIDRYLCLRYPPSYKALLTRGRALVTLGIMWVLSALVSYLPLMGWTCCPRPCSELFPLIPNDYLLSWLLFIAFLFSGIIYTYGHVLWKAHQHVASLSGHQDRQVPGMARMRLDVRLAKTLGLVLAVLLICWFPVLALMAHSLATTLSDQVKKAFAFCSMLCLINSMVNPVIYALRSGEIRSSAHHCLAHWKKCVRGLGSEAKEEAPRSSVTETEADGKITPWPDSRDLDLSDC
# Cannabinoid Receptor 1 (CB1), sequence (P21554 whole entry): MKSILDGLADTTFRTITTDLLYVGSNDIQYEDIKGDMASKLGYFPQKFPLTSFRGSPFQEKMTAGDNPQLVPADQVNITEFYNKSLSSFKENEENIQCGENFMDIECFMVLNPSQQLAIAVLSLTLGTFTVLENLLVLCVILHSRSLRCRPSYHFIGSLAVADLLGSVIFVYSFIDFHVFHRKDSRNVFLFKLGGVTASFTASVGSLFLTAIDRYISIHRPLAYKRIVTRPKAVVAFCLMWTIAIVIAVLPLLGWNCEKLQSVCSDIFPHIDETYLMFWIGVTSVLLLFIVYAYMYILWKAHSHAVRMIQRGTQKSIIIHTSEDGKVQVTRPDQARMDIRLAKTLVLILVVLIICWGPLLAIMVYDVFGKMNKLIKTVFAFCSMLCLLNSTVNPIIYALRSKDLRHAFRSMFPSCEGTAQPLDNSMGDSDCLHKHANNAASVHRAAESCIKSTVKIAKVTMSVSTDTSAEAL
# Opioid Receptor mu (OPRM1), sequence (P35372 whole entry): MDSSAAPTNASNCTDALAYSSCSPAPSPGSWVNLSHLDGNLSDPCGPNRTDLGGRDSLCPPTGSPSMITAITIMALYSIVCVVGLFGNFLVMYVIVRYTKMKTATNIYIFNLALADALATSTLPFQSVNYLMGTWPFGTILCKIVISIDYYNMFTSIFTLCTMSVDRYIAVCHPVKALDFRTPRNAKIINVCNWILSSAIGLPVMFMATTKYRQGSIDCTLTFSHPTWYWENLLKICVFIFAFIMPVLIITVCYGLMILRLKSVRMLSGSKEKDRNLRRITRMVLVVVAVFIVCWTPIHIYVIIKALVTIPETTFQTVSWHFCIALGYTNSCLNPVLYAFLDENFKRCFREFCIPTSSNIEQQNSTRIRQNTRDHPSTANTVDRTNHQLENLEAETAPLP
# Histamine Receptor 2 (H2), sequence (P25021 whole entry, the tested form may be a part): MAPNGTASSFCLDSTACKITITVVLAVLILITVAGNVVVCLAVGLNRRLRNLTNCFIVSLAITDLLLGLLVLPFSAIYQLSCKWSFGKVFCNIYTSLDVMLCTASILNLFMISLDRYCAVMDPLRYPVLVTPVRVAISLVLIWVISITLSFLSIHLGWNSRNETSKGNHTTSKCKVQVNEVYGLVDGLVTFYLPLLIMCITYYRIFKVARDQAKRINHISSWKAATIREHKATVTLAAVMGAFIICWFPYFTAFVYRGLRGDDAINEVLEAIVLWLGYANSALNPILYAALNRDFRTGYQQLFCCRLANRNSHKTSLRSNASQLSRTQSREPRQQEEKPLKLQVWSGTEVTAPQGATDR
compound,measurement,setting,value
"COc1ccc(C(N)=O)cn1 [JBSNF-000088, 6-methoxynicotinamide]","E% (agonistic), CB1",[1]; 10 µM,0%
same,inhibition at 10 µM,"[1]; read-out: I% (antagonistic or inhibitory), CB1",1%
same,"E% (agonistic), CB2",[2]; 10 µM,-7%
same,inhibition at 10 µM,"[2]; read-out: I% (antagonistic or inhibitory), CB2",1%
same,plasma clearance as share of hepatic blood flow in mice,[3],approximately 25%
same,"E% (agonistic), 5HT1A",[4]; 10 µM,5%
same,inhibition at 10 µM,"[4]; read-out: I% (antagonistic or inhibitory), 5HT1A",-13%
same,"E% (agonistic), H2",[5]; 10 µM,-1%
same,inhibition at 10 µM,"[5]; read-out: I% (antagonistic or inhibitory), H2",6%
same,IC50,NNMT,2400 nM
same,"I% (antagonistic or inhibitory), PCP",[6],-11%
same,"E% (agonistic), OPRM1",[7]; 10 µM,-1%
same,inhibition at 10 µM,"[7]; OPRM1, read-out: I% (antagonistic or inhibitory), OPRM1",-8%
